The record followed here is paper PMC7370187, “Screening of an Epigenetic Drug Library Identifies 4-((hydroxyamino)carbonyl)-N-(2-hydroxyethyl)-N-Phenyl-Benzeneacetamide that Reduces Melanin Synthesis by Inhibiting Tyrosinase Activity Independently of Epigenetic Mechanisms” (International Journal of Molecular Sciences, 2020).

pIC50: −log10 of the molar value. “Also recorded” adds a separate entry of the source.

Data set [1] has as its system B16-F10 cells. Kind of data set: Melanin content assay (extracellular and intracellular). Format: cell-based, murine. To be noted: K8 1–10 µM, 100 nM α-MSH. As to the method:
The intracellular melanin retained in cells and extracellular melanin secreted from cells were separately determined. B16-F10 cells were plated in 6-well plates (1.2 × 10^4 cells per well), cultured for 24 h, treated with a test drug at various concentrations for 60 min, and stimulated with 100 nM α-MSH for 72 h. The conditioned medium was evaluated to determine the extracellular melanin content. Adherent cells were extracted with 10% dimethyl sulfoxide solution containing 1.0 M sodium hydroxide at 60 °C for 60 min, and melanin content in the extract was estimated by measuring the absorbance at 400 nm and normalized to the total protein content of the cells.

Data set [2] has as its target T1, human TYR (Homo sapiens, UniProt P14679).
T1 construct: expressed in transfected cells; Triton X-100 lysate supernatant
T1 sequence (P14679 19-529): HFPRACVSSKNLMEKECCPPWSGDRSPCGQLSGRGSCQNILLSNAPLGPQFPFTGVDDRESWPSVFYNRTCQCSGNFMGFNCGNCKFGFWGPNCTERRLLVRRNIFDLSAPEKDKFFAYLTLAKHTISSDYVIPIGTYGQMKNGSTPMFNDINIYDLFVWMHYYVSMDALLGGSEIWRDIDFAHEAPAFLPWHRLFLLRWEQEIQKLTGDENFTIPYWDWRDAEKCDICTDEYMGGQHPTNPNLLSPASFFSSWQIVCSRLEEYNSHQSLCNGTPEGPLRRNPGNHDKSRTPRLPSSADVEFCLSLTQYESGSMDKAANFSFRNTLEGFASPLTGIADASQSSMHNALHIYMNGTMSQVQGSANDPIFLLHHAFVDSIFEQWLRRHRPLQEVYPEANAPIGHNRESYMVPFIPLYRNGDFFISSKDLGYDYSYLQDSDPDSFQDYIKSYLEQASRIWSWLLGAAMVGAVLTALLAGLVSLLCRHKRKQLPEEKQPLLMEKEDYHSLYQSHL
Kind of data set: In vitro TYR catalytic activity assay, lysate of HEK293-TYR cells. Type of data set: biochemical. As to the method: To examine the direct effect of a drug on the catalytic activity of TYR, in vitro experiments were undertaken. Lysate of B16F10 cells stimulated with α-MSH for 24 h was used as a murine TYR preparation. Human TYR preparation was the lysate of human embryonic kidney 293 cells constitutively expressing human TYR (HEK293-TYR). […] The TYR activity assay mixture (200 μL) consisted of 100 mM sodium phosphate buffer (pH 6.8), TYR preparation (40 μg protein), a drug at various concentrations, 1.0 mM L-tyrosine, and 42 μΜ L-DOPA. For enzyme kinetic study, the concentrations of L-tyrosine plus L-DOPA were varied while their relative ratio was kept the same as the standard assay condition. […] The reactions were also performed in the absence of a TYR preparation to correct for the effects of non-enzymatic reactions. Enzyme activity was calculated as follows: activity (% control) = (C−D)/(A−B) × 100, where A and B are the absorbance changes of the control group with and without enzyme, respectively, while C and D are the absorbance changes of the test group with and without enzyme, respectively.

In data set [3] the test system is TYR, TYRP1, DCT and MITF mRNA in B16-F10 cells. The data set can be described thus: qRT-PCR analysis of melanogenic gene mRNA. Format: cell-based, murine. The settings on record: 100 nM α-MSH, 12 h, normalized to GAPDH. As to the method: After B16-F10 cells were treated with drug and/or α-MSH, cellular RNA was extracted using an RNeasy kit (Qiagen, Valencia, CA, USA) and the complementary DNA (cDNA) was synthesized by reverse transcription using a High-Capacity cDNA Archive Kit (Applied Biosystems, Foster City, CA, USA). qRT-PCR was conducted using a StepOnePlus™ Real-Time PCR System (Applied Biosystems). The reaction mixture (20 μL) comprised SYBR® Green PCR Master Mix (Applied Biosystems), 60 ng cDNA, and 2 pmol gene-specific primer sets (Macrogen, Seoul, Korea).
The reaction protocol was as follows: initial incubation at 50 °C for 2 min; DNA polymerase activation at 95 °C for 15 min; and annealing and extension at 60 °C for 1 min. In each PCR run, the melting curve was checked to confirm the homogeneity of the PCR product. The mRNA expression levels of the gene of interest were determined using the comparative Ct method, and normalized to the internal reference GAPDH [59]. In this method, Ct is defined as the number of PCR cycles required for the signal to exceed the threshold. Fold changes in the test group compared to the control group were calculated as 2^−ΔΔCt, where ΔΔCt = ΔCt(test) − ΔCt(control) = [Ct(gene, test) − Ct(reference, test)] − [Ct(gene, control) − Ct(reference, control)].

The nature of data set [4]: Copper chelating activity assay (pyrocatechol violet). Type of data set: physicochemical. To be noted: 200 μM test compound, 200 μM copper ions, 200 μM pyrocatechol violet, absorbance 632 nm. As to the method: Copper chelating activity was determined by using pyrocatechol violet (Sigma-Aldrich). […] The reaction mixture containing a potential chelator at varied concentrations, 200 μM CuSO4, and 200 μM pyrocatechol violet was incubated at 25 °C for 20 min, and its absorption spectra were recorded using a Shimadzu UV-1650PC spectrophotometer (Shimadzu Corporation, Kyoto, Japan). Copper chelating activity was evaluated by the change in the absorbance of pyrocatechol violet at 632 nm.

Data set [5] deals with B16-F10 cells. Kind of data set: Cell viability assay (MTT). Type of data set: cell-based, murine. To be noted: 48 h. As to the method:
Cell viability was evaluated using 3-(4,5-dimethylthiazol-2-yl)-2,5-diphenyltetrazolium bromide (MTT). After treatment of B16-F10 cells with each drug for 48 h, cells were washed with phosphate-buffered saline (PBS) and incubated for 2 h in the culture medium containing 1 mg∙mL^−1 MTT (Amresco, Solon, OH, USA). The medium was discarded by aspiration, the formazan dye deposited inside the cells was extracted with isopropanol, and absorbance was measured at 595 nm using a Spectrostar Nano microplate reader.

Data set [6] relates to tyrosinase (TYR) activity in B16-F10 cells. Kind of data set: Cellular TYR activity assay (lysates of treated cells). Format: cell-based, murine. The settings on record: 100 nM α-MSH, 24 h, cell lysates. The procedure: After B16-F10 cells were treated with drug and/or α-MSH, the TYR activity of cell extracts was determined by an indirect spectrophotometric method to monitor dopachrome formation with L-tyrosine plus L-DOPA as the substrates. Total cellular protein was extracted from the treated cells using a lysis buffer of 10 mM Tris-HCl buffer (pH 7.4) containing 120 mM NaCl, 25 mM KCl, 2.0 mM EDTA, 1.0 mM EGTA, 0.5% Triton X-100, and a protease inhibitor cocktail (Roche, Mannheim, Germany) at 4 °C, followed by centrifugation at 13,000× g for 15 min. The TYR activity assay mixture (200 μL) consisting of 100 mM sodium phosphate buffer (pH 6.8), 1.0 mM L-tyrosine, and 42 μΜ L-DOPA was incubated with 40 μg cellular protein extract at 37 °C, and changes in absorbance at 475 nm over time were measured using a Spectrostar Nano microplate reader.

For the compound `O=C(NO)c1ccc(CC(=O)N(CCO)c2ccccc2)cc1` [K8, 4-((hydroxyamino)carbonyl)-N-(2-hydroxyethyl)-N-phenyl-benzeneacetamide], the “intracellular melanin content, normalized for total cellular protein” value in data set [1] (cell extracts) is recorded as “suppressed by K8 in a dose-dependent manner”. In addition, in data set [1] (conditioned medium), the “extracellular melanin content, normalized for total cellular protein” value was “suppressed by K8 in a dose-dependent manner”. Further, in data set [2] (HEK293-TYR cell-free extract, L-tyrosine plus L-DOPA), the pIC50 is 5.96. Moreover, the “human TYR inhibitory effect” value in data set [2] (each drug at 1.0 μM, library screening) is listed as “potent TYR inhibitory effects”. Besides, in data set [3], the “DCT mRNA level” value was “not significantly affected”, the “MITF mRNA expression” value was “not significantly affected”, the “TYR mRNA level” value is “not significantly affected” and the “TYRP1 mRNA level” value is on record as “not significantly affected”. The same compound showed a copper ions chelated in data set [4] of 27%. For the same compound, in data set [5] (drug 1.0 μM), the relative viability result is listed as “without reducing cell viability”. For the same compound, the “cytotoxicity (relative viability)” value in data set [5] (drug at various concentrations) is “did not show toxic effects up to 10 μM”. For the same compound, the “cellular TYR activity” value in data set [6] is “attenuated; also recorded: only partially lowered by 10 µM K8”.
